± gives the standard deviation of the averaged measurements.
Columns and labels:
SOTRASTAURIN/AEB071 = compound: CN1CCN(c2nc(C3=C(c4c[nH]c5ccccc45)C(=O)NC3=O)c3ccccc3n2)CC1 [SOTRASTAURIN/AEB071]; test: surviving fraction relative to DMSO-only wells; higher = less growth inhibition; details: exposure time: 5 days
Procedure, shortened: (§1)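 After seeding at 250–500 cells per well in 384-well plates and a 24-hour wait, log-phase tumour cell lines were exposed without interruption for five days to inhibitors at 0.5, 1, 5, 10, 50, 100, 500 and 1000 nM. CellTiter-Glo luminescence was recorded after 10 minutes at room temperature. Viability is reported as surviving fraction, the luminescence normalised to the median of DMSO-only wells.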

TEMOZOLOMIDE = compound: Cn1nnc2c(C(N)=O)ncn2c1=O [TEMOZOLOMIDE]; test: as above; details: exposure time: 5 days
Procedure, shortened: as §1

Row | Test System | surviving fraction (SOTRASTAURIN/AEB071; 0.5 nM) | surviving fraction (SOTRASTAURIN/AEB071; 1 nM) | surviving fraction (SOTRASTAURIN/AEB071; 5 nM) | surviving fraction (SOTRASTAURIN/AEB071; 10 nM) | surviving fraction (SOTRASTAURIN/AEB071; 50 nM) | surviving fraction (SOTRASTAURIN/AEB071; 100 nM) | surviving fraction (SOTRASTAURIN/AEB071; 500 nM) | surviving fraction (SOTRASTAURIN/AEB071; 1000 nM) | surviving fraction (TEMOZOLOMIDE; 0.5 nM) | surviving fraction (TEMOZOLOMIDE; 1 nM) | surviving fraction (TEMOZOLOMIDE; 5 nM) | surviving fraction (TEMOZOLOMIDE; 10 nM) | surviving fraction (TEMOZOLOMIDE; 50 nM) | surviving fraction (TEMOZOLOMIDE; 100 nM) | surviving fraction (TEMOZOLOMIDE; 500 nM) | surviving fraction (TEMOZOLOMIDE; 1000 nM)
1 | MDAMB436 BREAST | 0.976 ± 0.12 | 0.96 ± 0.057 | 0.932 ± 0.14 | 0.992 ± 0.13 | 0.943 ± 0.043 | 0.816 ± 0.052 | 0.955 ± 0.073 | 0.952 ± 0.056 | 0.976 ± 0.14 | 1.03 ± 0.15 | 0.997 ± 0.13 | 1.09 ± 0.17 | 0.936 ± 0.1 | 1.04 ± 0.14 | 1.03 ± 0.11 | 0.959 ± 0.051
2 | MDAMB453 BREAST | 0.996 ± 0.053 | 0.971 ± 0.081 | 1.01 ± 0.058 | 1 ± 0.076 | 0.915 ± 0.048 | 0.969 ± 0.1 | 0.951 ± 0.014 | 0.895 ± 0.05 | 1.07 ± 0.015 | 1.097 ± 0.0087 | 1.13 ± 0.016 | 1.1 ± 0.076 | 1.14 ± 0.058 | 1.09 ± 0.11 | 1.07 ± 0.075 | 1.09 ± 0.056
3 | MDAMB468 BREAST | 0.911 ± 0.041 | 0.9443 ± 0.0091 | 1.02 ± 0.061 | 0.932 ± 0.019 | 0.964 ± 0.09 | 0.964 ± 0.077 | 0.947 ± 0.076 | 0.868 ± 0.053 | 0.983 ± 0.086 | 1.13 ± 0.045 | 1.114 ± 0.0027 | 1.17 ± 0.075 | 1.09 ± 0.07 | 1.15 ± 0.045 | 1.03 ± 0.1 | 1.12 ± 0.091
4 | MFM223 BREAST | 1.12 ± 0.12 | 1.18 ± 0.094 | 1.07 ± 0.084 | 1.12 ± 0.076 | 0.849 ± 0.18 | 0.716 ± 0.081 | 0.719 ± 0.038 | 0.711 ± 0.035 | 1.46 ± 0.65 | 1.38 ± 0.44 | 1.5 ± 0.54 | 1.49 ± 0.63 | 1.38 ± 0.52 | 1.19 ± 0.07 | 1.38 ± 0.48 | 1.17 ± 0.08
5 | MG63 BONE | 1.02 ± 0.053 | 1.05 ± 0.047 | 1.06 ± 0.049 | 1.09 ± 0.027 | 1.07 ± 0.04 | 1.03 ± 0.065 | 1.02 ± 0.042 | 0.937 ± 0.029 | 0.964 ± 0.016 | 1.01 ± 0.036 | 1.03 ± 0.026 | 1.09 ± 0.035 | 1.01 ± 0.032 | 1.1 ± 0.047 | 0.997 ± 0.031 | 1.02 ± 0.032
6 | MHM BONE | 1.04 ± 0.022 | 1.04 ± 0.05 | 1.07 ± 0.032 | 1.04 ± 0.046 | 1.11 ± 0.016 | 1.089 ± 0.01 | 1.078 ± 0.0072 | 1.05 ± 0.032 | 0.9827 ± 0.0021 | 0.975 ± 0.007 | 1.01 ± 0.043 | 1.04 ± 0.014 | 0.998 ± 0.042 | 1.03 ± 0.029 | 0.973 ± 0.032 | 0.998 ± 0.0056
7 | NCIH441 LUNG | 1.03 ± 0.069 | 1.03 ± 0.043 | 1.16 ± 0.034 | 0.969 ± 0.072 | 1.02 ± 0.068 | 1 ± 0.022 | 1.07 ± 0.037 | 0.957 ± 0.083 | 1.07 ± 0.065 | 1.14 ± 0.06 | 1.21 ± 0.059 | 1.06 ± 0.066 | 1.04 ± 0.081 | 1.13 ± 0.074 | 1.11 ± 0.086 | 1.19 ± 0.058
8 | NOS1 BONE | 1.05 ± 0.087 | 1 ± 0.084 | 1.14 ± 0.12 | 1.08 ± 0.071 | 0.974 ± 0.095 | 1 ± 0.037 | 0.899 ± 0.035 | 1 ± 0.037 | 0.881 ± 0.071 | 1.01 ± 0.077 | 1.16 ± 0.11 | 1.16 ± 0.049 | 1.25 ± 0.099 | 1.15 ± 0.067 | 1.01 ± 0.076 | 1.06 ± 0.14

— the supplement of paper PMC6045584
